According to US20110269755A1, “COMPOSITIONS AND METHODS FOR TREATING VASCULAR, AUTOIMMUNE, AND INFLAMMATORY DISEASES” (Aspreva International Ltd., priority 2006, published 2011):
≈ marks a conversion by molar mass, not a printed value. Entries after “also recorded” stand apart in the source; their conditions may differ.

Tests used:
allograft survival = details: mice; cited from earlier work
Ldlr−/− mice [1] = experiment: Serum/plasma lipid levels in Ldlr−/− mice on Western-type diet, MMF alone; type: in vivo
Description: (§1) Additional secondary endpoints examined were plasma levels of cholesterol, HDL cholesterol, triglycerides, and phospholipids.

[2] = cited from earlier work
[3] = following oral or intravenous administration; cited from earlier work
Ldlr−/− mice [4] = experiment: Atherosclerosis in Ldlr−/− mice on Western-type diet, plaque area at the aortic root, MMF alone; type: in vivo; details: for reduction of atherosclerosis (AS), percentage of aortic sinus occluded by plaque: 12 weeks
Description: as §1

[5] = tested on: antibody response to sheep red blood cells; details: mice; cited from earlier work
[6] = tested on: endothelial nitric oxide synthase (eNOS); details: in vitro, cited from earlier work

COc1c(C)c2c(c(O)c1C/C=C(\C)CCC(=O)OCCN1CCOCC1)C(=O)OC2 [MMF, morpholinoethyl E-6-(1,3-dihydro-4-hydroxy-6-methoxy-7-methyl-3-oxo-5-isobenzofuranyl)-4-methyl-4-hexenoate]
effective dose for in vivo prolongation of allograft survival (allograft survival): about 80 mg/kg/day
HDL cholesterol levels (Ldlr−/− mice [1]; Ldlr−/− mice): no effect
total cholesterol levels (Ldlr−/− mice [1]; Ldlr−/− mice): no effect
serum cholesterol levels (Ldlr−/− mice [1]; male Ldlr−/− mice): did not lower
serum phospholipid levels (Ldlr−/− mice [1]; male Ldlr−/− mice): lower; also recorded: decreases
serum triglyceride levels (Ldlr−/− mice [1]; male Ldlr−/− mice): lower; also recorded: decreases
solubility ([2]; in 5% dextrose solution): 65.8 mg/mL (≈ 152 mM)
solubility in water ([2]; water): insoluble
metabolism to the active metabolite MPA [3]: rapidly and completely metabolized
reduction of atherosclerosis (AS), percentage of aortic sinus occluded by plaque (Ldlr−/− mice [4]; MMF 6 mg/kg/day in diet, male Ldlr−/− mice): 18%
reduction of atherosclerosis (AS), percentage of aortic sinus occluded by plaque (Ldlr−/− mice [4]; MMF 15 mg/kg/day in diet, male Ldlr−/− mice): 30%
reduction of atherosclerosis (AS), percentage of aortic sinus occluded by plaque (Ldlr−/− mice [4]; MMF 30 mg/kg/day in diet, male Ldlr−/− mice): 28%
reduction of atherosclerosis (AS), percentage of aortic sinus occluded by plaque (Ldlr−/− mice [4]; MMF 100 mg/kg/day in diet, male Ldlr−/− mice): 64%
dose response of the reduction of atherosclerosis (Ldlr−/− mice [4]; MMF 6, 15, 30 and 100 mg/kg/day, male Ldlr−/− mice): dose-dependent
effect on atherosclerosis / atheromatous plaques (Ldlr−/− mice [4]; MMF alone, doses lower than used for preventing organ rejection, Ldlr−/− mice): reduce atherosclerosis; also recorded: reduction of atheromatous plaques

COc1c(C)c2c(c(O)c1C/C=C(\C)CCC(=O)O)C(=O)OC2 [MPA, mycophenolic acid]
ED50 for inhibiting the antibody reaction [5]: about 33 mg/kg/day
trend in aortic root lesions as a function of serum MPA levels (linear regression) (Ldlr−/− mice [4]; Ldlr−/− mice given MMF): statistically significant decreasing trend

CC[C@H](C)C(=O)O[C@H]1C[C@@H](C)C=C2C=C[C@H](C)[C@H](CC[C@@H]3C[C@@H](O)CC(=O)O3)[C@H]21 [lovastatin]
upregulation of eNOS expression ([6]; cholesterol clamped conditions): almost fourfold
downregulation of eNOS by oxidized LDL [6]: completely prevent
